In patent US10239869B2, “Sulfonamide compounds as voltage-gated sodium channel modulators” (LUPIN LIMITED, priority 2015, dated 2019):
Where two headings read alike, the source gives them in different places.

Columns and labels:
Nav 1.7 = Nav 1.7 (Homo sapiens (Human), UniProt Q15858); assay: Inhibition of sodium channels, Red Membrane Potential Dye FLIPR assay, veratridine depolarization; format: cell-based; conditions: HEK-293 cells overexpressing the channel; read-out: Nav1.7 IC50
Nav 1.5 = Nav 1.5 (Homo sapiens (Human), UniProt Q14524); assay: as above; format: cell-based; conditions: HEK-293 cells overexpressing the channel; for inhibition at 10 µM: HEK-293 cells overexpressing Nav 1.5
[1] = read-out: Nav1.5 IC50 (bound given in μM)

Chain of Nav 1.5 (Q14524 whole entry): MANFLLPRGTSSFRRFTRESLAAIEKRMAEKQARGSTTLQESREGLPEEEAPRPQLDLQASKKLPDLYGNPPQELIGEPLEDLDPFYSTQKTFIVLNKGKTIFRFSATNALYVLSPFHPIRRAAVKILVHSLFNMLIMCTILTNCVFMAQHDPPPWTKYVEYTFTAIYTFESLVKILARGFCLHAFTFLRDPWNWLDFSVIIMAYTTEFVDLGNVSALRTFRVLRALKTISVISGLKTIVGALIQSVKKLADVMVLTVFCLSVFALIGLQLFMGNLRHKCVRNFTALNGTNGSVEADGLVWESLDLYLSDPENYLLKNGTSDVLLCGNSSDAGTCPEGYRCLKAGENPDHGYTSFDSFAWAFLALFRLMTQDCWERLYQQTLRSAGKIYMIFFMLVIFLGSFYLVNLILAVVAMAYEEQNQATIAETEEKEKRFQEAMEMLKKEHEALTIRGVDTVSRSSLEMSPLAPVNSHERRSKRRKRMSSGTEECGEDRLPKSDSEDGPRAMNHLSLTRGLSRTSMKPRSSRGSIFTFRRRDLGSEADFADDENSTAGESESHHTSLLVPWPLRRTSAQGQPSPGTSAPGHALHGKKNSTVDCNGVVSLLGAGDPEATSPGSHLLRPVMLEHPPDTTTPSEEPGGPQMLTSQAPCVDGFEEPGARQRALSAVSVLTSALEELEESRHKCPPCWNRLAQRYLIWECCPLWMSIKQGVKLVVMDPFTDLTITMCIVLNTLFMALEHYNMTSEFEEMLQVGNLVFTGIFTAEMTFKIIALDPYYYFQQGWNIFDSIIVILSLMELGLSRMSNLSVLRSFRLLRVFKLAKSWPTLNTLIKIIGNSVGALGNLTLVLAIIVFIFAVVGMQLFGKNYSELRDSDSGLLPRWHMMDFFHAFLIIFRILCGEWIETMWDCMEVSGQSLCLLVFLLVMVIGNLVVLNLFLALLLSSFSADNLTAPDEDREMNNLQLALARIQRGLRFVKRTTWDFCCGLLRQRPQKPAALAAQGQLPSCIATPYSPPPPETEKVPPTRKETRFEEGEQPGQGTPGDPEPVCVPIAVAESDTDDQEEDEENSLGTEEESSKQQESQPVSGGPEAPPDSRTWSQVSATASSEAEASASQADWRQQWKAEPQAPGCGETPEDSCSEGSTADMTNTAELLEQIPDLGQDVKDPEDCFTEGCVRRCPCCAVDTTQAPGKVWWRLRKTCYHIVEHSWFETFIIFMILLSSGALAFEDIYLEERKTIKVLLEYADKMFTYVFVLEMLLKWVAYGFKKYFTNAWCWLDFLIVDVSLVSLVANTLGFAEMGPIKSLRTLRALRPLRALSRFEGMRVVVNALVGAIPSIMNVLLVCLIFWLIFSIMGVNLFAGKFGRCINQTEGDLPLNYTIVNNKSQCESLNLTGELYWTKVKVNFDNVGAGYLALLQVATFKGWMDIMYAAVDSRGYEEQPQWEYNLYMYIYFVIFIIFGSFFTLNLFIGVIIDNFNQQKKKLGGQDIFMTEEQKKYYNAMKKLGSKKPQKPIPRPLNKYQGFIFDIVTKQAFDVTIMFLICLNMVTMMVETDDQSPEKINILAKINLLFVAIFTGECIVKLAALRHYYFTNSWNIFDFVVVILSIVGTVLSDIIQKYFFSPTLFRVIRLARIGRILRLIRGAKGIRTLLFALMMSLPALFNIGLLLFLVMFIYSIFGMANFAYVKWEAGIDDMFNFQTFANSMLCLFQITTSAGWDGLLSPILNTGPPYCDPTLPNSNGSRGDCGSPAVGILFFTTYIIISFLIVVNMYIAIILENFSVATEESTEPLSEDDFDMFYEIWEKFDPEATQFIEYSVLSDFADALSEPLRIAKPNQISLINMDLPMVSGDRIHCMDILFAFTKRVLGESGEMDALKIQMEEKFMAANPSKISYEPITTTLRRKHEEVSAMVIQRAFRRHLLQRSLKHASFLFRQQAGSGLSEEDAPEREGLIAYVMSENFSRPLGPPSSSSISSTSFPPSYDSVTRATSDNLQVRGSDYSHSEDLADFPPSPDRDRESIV
Chain of Nav 1.7 (Q15858 whole entry): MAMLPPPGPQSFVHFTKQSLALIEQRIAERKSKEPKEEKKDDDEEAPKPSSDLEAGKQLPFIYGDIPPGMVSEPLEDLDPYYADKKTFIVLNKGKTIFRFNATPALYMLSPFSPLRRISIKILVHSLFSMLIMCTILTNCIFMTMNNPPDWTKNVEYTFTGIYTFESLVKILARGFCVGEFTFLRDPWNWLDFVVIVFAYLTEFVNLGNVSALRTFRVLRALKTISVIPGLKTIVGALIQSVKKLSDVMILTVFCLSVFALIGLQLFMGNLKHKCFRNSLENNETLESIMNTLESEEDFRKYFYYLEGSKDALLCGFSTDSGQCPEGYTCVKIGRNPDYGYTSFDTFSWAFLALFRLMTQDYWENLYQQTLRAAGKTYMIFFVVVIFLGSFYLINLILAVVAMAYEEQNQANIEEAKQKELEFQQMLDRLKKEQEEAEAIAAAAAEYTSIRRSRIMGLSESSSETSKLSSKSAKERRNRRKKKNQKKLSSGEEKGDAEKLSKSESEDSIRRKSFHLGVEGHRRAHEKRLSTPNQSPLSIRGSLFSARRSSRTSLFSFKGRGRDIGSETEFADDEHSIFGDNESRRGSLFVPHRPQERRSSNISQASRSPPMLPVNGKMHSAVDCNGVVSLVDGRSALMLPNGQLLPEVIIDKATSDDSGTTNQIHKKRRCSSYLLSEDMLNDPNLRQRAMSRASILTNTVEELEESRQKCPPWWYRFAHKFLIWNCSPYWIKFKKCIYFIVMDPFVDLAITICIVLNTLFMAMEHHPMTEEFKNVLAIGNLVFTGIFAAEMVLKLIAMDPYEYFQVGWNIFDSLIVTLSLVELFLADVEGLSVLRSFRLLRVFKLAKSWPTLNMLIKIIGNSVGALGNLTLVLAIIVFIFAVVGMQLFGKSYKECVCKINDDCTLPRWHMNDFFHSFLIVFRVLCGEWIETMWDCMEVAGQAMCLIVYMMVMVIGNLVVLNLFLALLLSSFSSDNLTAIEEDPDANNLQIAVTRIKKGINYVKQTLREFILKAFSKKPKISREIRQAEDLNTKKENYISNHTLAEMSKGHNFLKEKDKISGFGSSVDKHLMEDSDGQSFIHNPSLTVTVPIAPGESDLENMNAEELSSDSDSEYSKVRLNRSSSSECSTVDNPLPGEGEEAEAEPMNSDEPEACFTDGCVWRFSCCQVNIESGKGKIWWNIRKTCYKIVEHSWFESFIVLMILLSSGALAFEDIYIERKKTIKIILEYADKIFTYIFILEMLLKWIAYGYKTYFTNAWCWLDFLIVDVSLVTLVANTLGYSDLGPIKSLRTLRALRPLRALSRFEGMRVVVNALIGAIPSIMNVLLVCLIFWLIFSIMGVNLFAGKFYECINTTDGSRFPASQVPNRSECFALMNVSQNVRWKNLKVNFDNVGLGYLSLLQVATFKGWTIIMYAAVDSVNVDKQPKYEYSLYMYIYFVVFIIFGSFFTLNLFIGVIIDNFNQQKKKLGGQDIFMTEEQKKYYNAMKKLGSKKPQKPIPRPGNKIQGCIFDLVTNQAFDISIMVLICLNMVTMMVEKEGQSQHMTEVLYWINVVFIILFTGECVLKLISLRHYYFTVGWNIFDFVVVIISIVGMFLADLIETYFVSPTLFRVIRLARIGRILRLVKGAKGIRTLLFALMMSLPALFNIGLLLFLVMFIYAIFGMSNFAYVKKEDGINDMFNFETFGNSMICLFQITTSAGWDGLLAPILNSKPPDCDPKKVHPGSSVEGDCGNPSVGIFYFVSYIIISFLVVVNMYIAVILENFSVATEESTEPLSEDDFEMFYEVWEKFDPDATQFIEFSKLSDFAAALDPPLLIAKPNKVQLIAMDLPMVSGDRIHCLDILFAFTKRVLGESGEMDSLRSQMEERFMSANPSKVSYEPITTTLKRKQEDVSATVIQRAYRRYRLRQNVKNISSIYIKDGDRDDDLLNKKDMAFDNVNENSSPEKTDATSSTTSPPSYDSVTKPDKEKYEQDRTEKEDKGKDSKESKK

Compound	IC50 (Nav 1.7)	IC50 (Nav 1.5; read-out: Nav1.5 IC50)	inhibition at 10 µM (Nav 1.5)	IC50 (Nav 1.5; [1])
O=S(=O)(Nc1cccc(F)n1)c1ccc2c(c1)OCC[C@@H]2c1ccc(C(F)(F)F)cc1CCCCF (racemic) [Example 167, (R/S)-4-(2-(4-fluorobutyl)-4-(trifluoromethyl)phenyl)-N-(6-fluoropyridin-2-yl)chroman-7-sulfonamide]	58 nM	0.241 µM	–	–
O=S(=O)(Nc1ncc(F)cn1)c1ccc2c(c1)OCC[C@@H]2c1ccc(C(F)(F)F)cc1O[C@H]1CCOC1 (racemic) [Example-182, (S/R)—N-(5-fluoropyrimidin-2-yl)-4-(2-(((S)-tetrahydrofuran-3-yl)oxy)-4-(trifluoromethyl)phenyl)chroman-7-sulfonamide]	55 nM	–	30%	–
O=S(=O)(Nc1ccncn1)c1ccc2c(c1)OCC[C@@H]2c1ccc(C(F)(F)F)cc1O[C@H]1CCOC1 (racemic) [Example-183, (S/R)—N-(pyrimidin-4-yl)-4-(2-(((S)-tetrahydrofuran-3-yl)oxy)-4-(trifluoromethyl)phenyl)chroman-7-sulfonamide]	11 nM	–	–	> 10 µM
O=S(=O)(Nc1cccnn1)c1ccc2c(c1)OCC[C@@H]2c1ccc(C(F)(F)F)cc1O[C@H]1CCOC1 (racemic) [Example-184, (S/R)—N-(pyridazin-3-yl)-4-(2-(((S)-tetrahydrofuran-3-yl)oxy)-4-(trifluoromethyl)phenyl)chroman-7-sulfonamide]	170 nM	–	67%	–
O=C(O)c1ccc(-c2cc(C(F)(F)F)ccc2[C@H]2CCOc3cc(S(=O)(=O)Nc4cccnn4)ccc32)cc1 (racemic) [Example-191, (R/S)-2′-(7-(N-(pyridazin-3-yl)sulfamoyl)chroman-4-yl)-5′-(trifluoromethyl)-[1,1′-biphenyl]-4-carboxylic acid]	671 nM	–	–	> 10 µM
O=C(O)c1ccc(-c2cc(C(F)(F)F)ccc2[C@H]2CCOc3cc(S(=O)(=O)Nc4cccc(F)n4)ccc32)cc1 (racemic) [Example-192, (R/S)-2′-(7-(N-(6-fluoropyridin-2-yl)sulfamoyl)chroman-4-yl)-5′-(trifluoromethyl)-[1,1′-biphenyl]-4-carboxylic acid]	8 nM	–	–	> 10 µM
O=C1OCCN1c1cc(C(F)(F)F)ccc1[C@H]1CCOc2cc(S(=O)(=O)Nc3ncccn3)ccc21 (racemic) [Example-207, (R/S)-4-(2-(2-oxooxazolidin-3-yl)-4-(trifluoromethyl)phenyl)-N-(pyrimidin-2-yl)chroman-7-sulfonamide]	49 nM	–	–	> 10 µM
O=C1OCCN1c1cc(C(F)(F)F)ccc1[C@H]1CCOc2cc(S(=O)(=O)Nc3ncc(F)cn3)ccc21 (racemic) [Example-208, (R/S)—N-(5-fluoropyrimidin-2-yl)-4-(2-(2-oxooxazolidin-3-yl)-4-(trifluoromethyl)phenyl)chroman-7-sulfonamide]	46 nM	–	–	> 10 µM
O=C1OCCN1c1cc(C(F)(F)F)ccc1[C@H]1CCOc2cc(S(=O)(=O)Nc3cccnn3)ccc21 (racemic) [Example-209, (R/S)-4-(2-(2-oxooxazolidin-3-yl)-4-(trifluoromethyl)phenyl)-N-(pyridazin-3-yl)chroman-7-sulfonamide]	47 nM	–	28%	–
O=C1OCCN1c1cc(C(F)(F)F)ccc1[C@H]1CCOc2cc(S(=O)(=O)Nc3cccc(F)n3)ccc21 (racemic) [Example-210, (R/S)—N-(6-fluoropyridin-2-yl)-4-(2-(2-oxooxazolidin-3-yl)-4-(trifluoromethyl)phenyl)chromane-7-sulfonamide]	48 nM	–	–	> 10 µM
O=S(=O)(Nc1ncc(F)cn1)c1ccc2c(c1)OCC[C@@H]2c1ccc(C(F)(F)F)cc1OC1COC1 (racemic) [Example-218, (S/R)—N-(5-fluoropyrimidin-2-yl)-4-(2-(oxetan-3-yloxy)-4-(trifluoromethyl)phenyl)chroman-7-sulfonamide]	43 nM	–	–	> 10 µM
O=S(=O)(Nc1cccc(F)n1)c1ccc2c(c1)OCC[C@@H]2c1ccc(C(F)(F)F)cc1OC1COC1 (racemic) [Example-219, (S/R)—N-(6-fluoropyridin-2-yl)-4-(2-(oxetan-3-yloxy)-4-(trifluoromethyl)phenyl)chromane-7-sulfonamide]	34 nM	–	40%	–
Cc1nc(-c2cc(C(F)(F)F)ccc2[C@H]2CCOc3cc(S(=O)(=O)Nc4ncccn4)ccc32)ccc1F (racemic) [Example-222, (R/S)-4-(2-(5-fluoro-6-methylpyridin-2-yl)-4-(trifluoromethyl)phenyl)-N-(pyrimidin-2-yl)chroman-7-sulfonamide]	63 nM	–	73%	–
Cc1nc(-c2cc(C(F)(F)F)ccc2[C@H]2CCOc3cc(S(=O)(=O)Nc4ncc(F)cn4)ccc32)ccc1F (racemic) [Example-223, (R/S)-4-(2-(5-fluoro-6-methylpyridin-2-yl)-4-(trifluoromethyl)phenyl)-N-(5-fluoropyrimidin-2-yl)chroman-7-sulfonamide]	82 nM	–	33%	–

Further lines, with some results ahead:

IC50 (Nav 1.7)	Compound	IC50 (Nav 1.5; read-out: Nav1.5 IC50)	inhibition at 10 µM (Nav 1.5)	IC50 (Nav 1.5; [1])
5 nM	O=S(=O)(Nc1ccncn1)c1ccc2c(c1)OCC[C@@H]2c1ccc(C(F)(F)F)cc1CCCCF (racemic) [Example 165, (R/S)-4-(2-(4-fluorobutyl)-4-(trifluoromethyl)phenyl)-N-(pyrimidin-4-yl)chroman-7-sulfonamide]	0.303 µM	–	–
50 nM	O=S(=O)(Nc1cccnn1)c1ccc2c(c1)OCC[C@@H]2c1ccc(C(F)(F)F)cc1CCCCF (racemic) [Example 166, (R/S)-4-(2-(4-fluorobutyl)-4-(trifluoromethyl)phenyl)-N-(pyridazin-3-yl)chroman-7-sulfonamide]	0.134 µM	–	–
7 nM	O=S(=O)(Nc1ncccn1)c1ccc2c(c1)OCC[C@@H]2c1ccc(C(F)(F)F)cc1CCC(F)F (racemic) [Example-211, (R/S)-4-(2-(3,3-difluoropropyl)-4-(trifluoromethyl)phenyl)-N-(pyrimidin-2-yl)chroman-7-sulfonamide]	0.777 µM	–	–
18 nM	O=S(=O)(Nc1ncc(F)cn1)c1ccc2c(c1)OCC[C@@H]2c1ccc(C(F)(F)F)cc1CCC(F)F (racemic) [Example-212, (R/S)-4-(2-(3,3-difluoropropyl)-4-(trifluoromethyl)phenyl)-N-(5-fluoropyrimidin-2-yl)chroman-7-sulfonamide]	–	–	> 10 µM
34 nM	O=S(=O)(Nc1ccncn1)c1ccc2c(c1)OCC[C@@H]2c1ccc(C(F)(F)F)cc1CCC(F)F (racemic) [Example-213, (R/S)-4-(2-(3,3-difluoropropyl)-4-(trifluoromethyl)phenyl)-N-(pyrimidin-4-yl)chroman-7-sulfonamide]	–	65%	–
2 nM	O=S(=O)(Nc1cccnn1)c1ccc2c(c1)OCC[C@@H]2c1ccc(C(F)(F)F)cc1CCC(F)F (racemic) [Example-214, (R/S)-4-(2-(3,3-difluoropropyl)-4-(trifluoromethyl)phenyl)-N-(pyridazin-3-yl)chroman-7-sulfonamide]	0.635 µM	–	–
38 nM	O=S(=O)(Nc1cccc(F)n1)c1ccc2c(c1)OCC[C@@H]2c1ccc(C(F)(F)F)cc1CCC(F)F (racemic) [Example-215, (R/S)-4-(2-(3,3-difluoropropyl)-4-(trifluoromethyl)phenyl)-N-(6-fluoropyridin-2-yl)chromane-7-sulfonamide]	1.35 µM	–	–
